Key:
[1] = biological target: T1, UGT1A1 (Homo sapiens, UniProt P22309); test: UGT inhibition assay, UGT1A1; type: in vitro ADME
T1 sequence (P22309 26-533): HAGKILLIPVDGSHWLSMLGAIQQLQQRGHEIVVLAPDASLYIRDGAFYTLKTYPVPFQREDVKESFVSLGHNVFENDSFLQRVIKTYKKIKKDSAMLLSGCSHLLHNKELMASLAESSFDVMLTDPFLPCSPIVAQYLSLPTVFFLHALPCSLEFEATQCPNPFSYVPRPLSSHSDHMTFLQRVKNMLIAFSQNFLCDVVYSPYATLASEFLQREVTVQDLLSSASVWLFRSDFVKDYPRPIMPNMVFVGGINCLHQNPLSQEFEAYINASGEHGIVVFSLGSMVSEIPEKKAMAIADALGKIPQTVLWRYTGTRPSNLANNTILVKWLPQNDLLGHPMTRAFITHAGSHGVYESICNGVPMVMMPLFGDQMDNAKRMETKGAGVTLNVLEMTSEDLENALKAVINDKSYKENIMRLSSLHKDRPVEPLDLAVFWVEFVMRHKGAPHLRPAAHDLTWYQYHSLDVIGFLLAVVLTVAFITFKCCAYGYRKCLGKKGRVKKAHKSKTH
Description: 2R,6R-hydroxynorketamine was therefore investigated for its potential to inhibit this isozyme, along with that of the major UGT isozyme, UGT1A1, using a UGT inhibition assay.

[2] = tested on: plasma binding proteins; test: fraction unbound in 100% plasma, dog; type: in vitro ADME
Description: (§1) While the risk of DDIs due to displacement from plasma binding proteins (PPBs) is relatively low, it should be considered for drugs which display a high proportion PPB (fraction unbound (fu)<1%).
(§2) The fu was investigated for 2R,6R-hydroxynorketamine using a 100% plasma from 4 test species.

[3] = biological target: MAO-A (Homo sapiens, UniProt P21397); test: binding to monoamine oxidase A
MAO-A, sequence (P21397 whole entry, species assumed): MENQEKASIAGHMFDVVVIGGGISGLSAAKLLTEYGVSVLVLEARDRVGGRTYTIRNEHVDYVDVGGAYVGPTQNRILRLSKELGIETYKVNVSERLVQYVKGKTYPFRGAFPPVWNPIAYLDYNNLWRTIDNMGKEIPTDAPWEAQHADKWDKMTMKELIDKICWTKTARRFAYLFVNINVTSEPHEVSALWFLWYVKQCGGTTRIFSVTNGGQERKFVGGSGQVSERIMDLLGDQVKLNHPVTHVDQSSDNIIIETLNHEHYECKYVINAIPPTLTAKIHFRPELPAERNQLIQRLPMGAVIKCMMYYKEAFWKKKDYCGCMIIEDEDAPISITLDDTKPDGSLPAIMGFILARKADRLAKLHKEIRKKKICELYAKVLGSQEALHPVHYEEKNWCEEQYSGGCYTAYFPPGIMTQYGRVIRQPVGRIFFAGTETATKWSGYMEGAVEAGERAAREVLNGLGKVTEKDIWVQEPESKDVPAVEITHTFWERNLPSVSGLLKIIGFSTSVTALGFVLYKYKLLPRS
Description: (§3) 2R,6R-hydroxynorketamine was investigated for binding to monoamine oxidases A and B, monoamine transporters, as well as a variety of 5HT receptors.

[4] = metabolite profiling; type: in vitro ADME; conditions: hepatocyte data with metabolite profiling
Procedure: (§4) 2R,6R-hydroxynorketamine was investigated using an in vitro hepatocyte stability assay, during which 2R,6R-hydroxynorketamine was incubated with cryopreserved hepatocytes from 3 test species.

[5] = in vitro hepatocyte stability assay, rat; type: in vitro ADME; conditions: cryopreserved hepatocytes
Procedure: as §4

[6] = tested on: 5-HT1, Non-Selective; test: binding to 5-HT1 receptors, non-selective
Description: as §3
An absence of interaction between 2R,6R-hydroxynorketamine and 5HT1 receptors is also of note. Rare postmarketing reports have described patients with weakness, hyperreflexia, and incoordination following the use of an SSRI and the 5HT1 agonist, sumatriptan. The possibility of such interactions should also be considered if other 5HT1 agonists are to be used in combination with SSRIs.

[7] = biological target: CYP2C9 (Homo sapiens, UniProt P11712); test: CYP inhibition assay, CYP2C9; type: in vitro ADME
CYP2C9, sequence (P11712 whole entry): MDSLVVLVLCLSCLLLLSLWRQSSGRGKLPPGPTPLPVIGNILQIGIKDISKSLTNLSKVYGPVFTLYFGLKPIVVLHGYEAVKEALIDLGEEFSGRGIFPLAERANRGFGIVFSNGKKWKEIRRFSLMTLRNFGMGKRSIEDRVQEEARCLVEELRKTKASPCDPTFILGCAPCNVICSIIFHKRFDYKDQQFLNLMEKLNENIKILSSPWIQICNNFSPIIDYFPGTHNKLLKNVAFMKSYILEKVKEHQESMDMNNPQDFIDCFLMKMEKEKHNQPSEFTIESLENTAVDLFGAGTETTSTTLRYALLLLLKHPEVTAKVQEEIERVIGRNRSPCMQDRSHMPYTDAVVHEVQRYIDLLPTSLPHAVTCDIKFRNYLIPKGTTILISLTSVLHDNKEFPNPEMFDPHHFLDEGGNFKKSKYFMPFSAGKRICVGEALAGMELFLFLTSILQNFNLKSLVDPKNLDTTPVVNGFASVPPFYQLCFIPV
Description: (§5) Cytochrome P450s (CYPs) are a family of enzymes that play a primary role in the metabolism of a wide variety of drugs. 2R,6R-hydroxynorketamine was investigated for its potential to inhibit the action of 7 key CYP enzymes using an inhibition assay measuring reduction in the formation of metabolites compared to control.

[8] = biological target: CYP2C19 (Homo sapiens, UniProt P33261); test: CYP inhibition assay, CYP2C19; type: in vitro ADME
CYP2C19, sequence (P33261 whole entry): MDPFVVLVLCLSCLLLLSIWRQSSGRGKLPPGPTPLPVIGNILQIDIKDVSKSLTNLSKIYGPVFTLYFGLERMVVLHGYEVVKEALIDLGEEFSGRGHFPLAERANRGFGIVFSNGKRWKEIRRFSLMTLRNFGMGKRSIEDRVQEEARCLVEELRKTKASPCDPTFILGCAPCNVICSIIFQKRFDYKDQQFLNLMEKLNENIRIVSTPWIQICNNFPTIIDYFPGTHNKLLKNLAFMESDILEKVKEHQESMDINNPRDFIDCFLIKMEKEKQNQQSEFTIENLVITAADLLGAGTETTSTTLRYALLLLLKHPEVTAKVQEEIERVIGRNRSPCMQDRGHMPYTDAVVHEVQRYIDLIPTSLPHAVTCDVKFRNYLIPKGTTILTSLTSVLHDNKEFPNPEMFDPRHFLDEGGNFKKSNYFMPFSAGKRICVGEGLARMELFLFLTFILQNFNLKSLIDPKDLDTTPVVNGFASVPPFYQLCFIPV
Description: as §5

[9] = tested on: plasma binding proteins; test: fraction unbound in 100% plasma, human; type: in vitro ADME
Description: as §1, §2

[10] = tested on: plasma binding proteins; test: fraction unbound in 100% plasma, mouse; type: in vitro ADME
Description: as §1, §2

N[C@@]1(c2ccccc2Cl)CCC[C@@H](O)C1=O [2R,6R-hydroxynorketamine]
inhibition of UGT1A1 [1]: does not inhibit | plasma protein binding (PPB), words [2]: low PPB | % Inhibition of Control Specific Binding [3]: −5% | % of Control Specific Binding [3]: 97.7% | phase I metabolism by CYP enzymes [4]: does not undergo phase I metabolism | route of metabolism and excretion [4]: glucuronidated and excreted via the renal system | half-life [5]: 25.1 min | hepatocyte CLint [5]: 55.2 µL/min/1e6 cells | % Inhibition of Control Specific Binding [6]: −9% | % of Control Specific Binding [6]: 105.4% | binding to 5HT1 receptors [6]: does not bind | inhibition of CYP2C9 [7]: did not inhibit | inhibition at 0.4 µM ([7]; human, 0.4 μM): 4.59% | inhibition at 1 µM ([7]; human, 1 μM): 5.92% | inhibition at 4 µM ([7]; human, 4 μM): 5.8% | inhibition at 10 µM ([7]; human, 10 μM): 11.9% | inhibition at 40 µM ([7]; human, 40 μM): -0.113% | inhibition at 100 µM ([7]; human, 100 μM): -1.33% | inhibition of CYP2C19 [8]: did not inhibit | inhibition at 0.4 µM ([8]; human, 0.4 μM): -2.01% | inhibition at 1 µM ([8]; human, 1 μM): -1.66% | inhibition at 4 µM ([8]; human, 4 μM): 1.85% | inhibition at 10 µM ([8]; human, 10 μM): 6.69% | inhibition at 40 µM ([8]; human, 40 μM): 8.25% | inhibition at 100 µM ([8]; human, 100 μM): 16.1% | plasma protein binding (PPB), words [9]: low PPB | plasma protein binding (PPB), words [10]: low PPB
